The values below come from patent publication US20230159445A1, “STAT INHIBITORY COMPOUNDS AND COMPOSITIONS” (JANPIX LIMITED, priority 2020, published 2023).

Each structure is given as a SMILES string. pIC50: −log10 of the molar value.

One series relates to MV4-11 cells. Briefly: MV4-11 Cell Cytotoxicity Assay (CellTiter-Blue, 72 h). The following applies: Homo sapiens, MV4-11; MV-4-11 cells. The format is cell-based, human. Summed up: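 Cells seeded 24 h before treatment, then exposed 72 h at 37° C, 5% CO2 to inhibitors in triplicate, top concentration 50 μM with 1:2 serial dilutions (0.5% DMSO vehicle). Viability read by CellTiter-Blue fluorescence at 560/590 nm after 1 h.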
In general terms: Resazurin is reduced to fluorescent resorufin, in cell work by metabolically active cells.

For series [1], the system named is normal human fibroblast (NHF) cells. Briefly: NHF Cell Cytotoxicity Assay (CellTiter-Blue, 72 h), off-target effects. It is filed as cell-based. The conditions noted are these: Homo sapiens, Fibroblast; pooled NHF cells. As to the method: In some embodiments, the off-target effects of the compounds are evaluated in healthy human cells, such as in a normal human fibroblast (NHF) cell cytotoxicity assay.
Cell viability was examined following treatment at various concentrations of inhibitor (0.097656-50 μM) using a cell Titer-Blue cell viability assay. 1×10^4 normal human fibroblast cells per well were plated in 96-well assay plates in culture medium. All cells are grown in DMEM, IMDM and RPMI-1640 were supplemented with 10% FBS. After 24 hours, test compounds and vehicle controls are added to appropriate wells so the final volume was 100 μl in each well. The cells are cultured for the desired test exposure period (72 hours) at 37° C. and 5% CO2. The assay plates are removed from 37° C. incubator and 20 μL/well of CellTiter-Blue® Reagent is added. The plates are incubated using standard cell culture conditions for 1-4 hours and the plates are shaken for 10 seconds and record fluorescence at 560/590nm. For each sample well, value is normalized between the DMSO control and the highest concentration in case of plateau, and converted into a percentage. In the absence of plateau, minimum lecture is obtained from a different sample within the same experiment. For each concentration, the four replicates are averaged and standard deviation calculated. Data is fitted to a log(inhibitor) vs response curve with variable slope model using Microsoft Excel, obtaining IC50 and Hill slope variables.
A person skilled in the art would appreciate that a higher IC50 value in this NHF assay can indicate lower off-target effects.

Another series relates to glutathione (GSH). In words: Reactivity Profiling with Glutathione (GSH), half-life by HPLC. The conditions noted are these: 5 mM glutathione (GSH) in IMDM with 10% FBS.

Take `CC(C)(C)c1cc(CN(C(=O)CN(Cc2ccccc2C(F)(F)F)S(=O)(=O)c2c(F)c(F)c(F)c(F)c2F)c2ccc(C(=O)O)cc2OC2CC2)cc(C2CC2)c1` [Compound 1111, 4-(N-(3-(tert-butyl)-5-cyclopropylbenzyl)-2-(N-(2-(trifluoromethyl)benzyl)-(2,3,4,5,6-pentafluoro-phenyl)sulfonamido)acetamido)-3-cyclopropoxybenzoic acid]: the pIC50 in the series on MV4-11 cells is 6.50 to 11.00; in series [1] it was 4.00 to 4.52. The half-life at 25 μM in the series with glutathione (GSH) was 9.23 to 1670 h.
For `CCOc1cc(C(=O)O)ccc1N(Cc1cc(C2CC2)cc(C(C)(C)C)c1)C(=O)CN(Cc1ccccc1C#N)S(=O)(=O)c1c(F)c(F)c(F)c(F)c1F` [Compound 1272, 4-(N-(3-(tert-butyl)-5-cyclopropylbenzyl)-2-((N-(2-cyanobenzyl)-2,3,4,5,6-pentafluorophenyl)sulfonamido)acetamido)-3-ethoxybenzoic acid] the same measures were 6.50 to 11.00, 4.70 to 5.00 and 2.37 to 4.12 h.
In the same order, the values of `CC(C)Oc1cc(CN(C(=O)CN(Cc2ccccc2C(F)(F)F)S(=O)(=O)c2c(F)c(F)c(F)c(F)c2F)c2ccc(C(=O)O)cc2OC2CC2)cc(C2CC2)c1` [Compound 1213, 3-cyclopropoxy-4-(N-(3-cyclopropyl-5-isopropoxybenzyl)-2-(N-(2-(trifluoromethyl)benzyl)-(2,3,4,5,6-pentafluoro-phenyl)sulfonamido)acetamido)benzoic acid] are 6.50 to 11.00, 4.70 to 5.00 and 2.37 to 4.12 h.
For `COc1cc(C(=O)O)ccc1N(Cc1cc(C2CC2)cc(C(C)(C)C)c1)C(=O)CN(Cc1ncccc1C(F)(F)F)S(=O)(=O)c1c(F)c(F)c(F)c(F)c1F` [Compound 1098, 4-(N-(3-(tert-butyl)-5-cyclopropylbenzyl)-2-(N-((3-(trifluoromethyl)pyridin-2-yl)methyl)-(2,3,4,5,6-pentafluoro-phenyl)sulfonamido)acetamido)-3-methoxybenzoic acid] the same measures were 6.00 to 6.50, 4.52 to 4.70 and 2.37 to 4.12 h.
For the compound `CC(C)(C)c1cc(CN(C(=O)CN(Cc2ccc(F)cc2Cl)S(=O)(=O)c2c(F)c(F)c(F)c(F)c2F)c2ccc(C(=O)O)cc2OC2CCOC2)cc(C2CC2)c1` (stereo not drawn) [Compound 1226, 4-(N-(3-(tert-butyl)-5-cyclopropylbenzyl)-2-(N-(2-chloro-4-fluorobenzyl)-(2,3,4,5,6-pentafluorophenyl)sulfon-amido)acetamido)-3-((tetrahydrofuran-3-yl)oxy)benzoic acid], the values for the pIC50 (in the series with MV4-11 cells; in series [1]) were 6.50 to 11.00 and 5.00 to 9.00, respectively. Moreover, the half-life at 25 μM with glutathione (GSH) was in the range of 2.37 to 4.12 h.
In the same order, the values of `COCCOc1cc(C(=O)O)ccc1N(Cc1cc(C2CC2)cc(C(C)(C)C)c1)C(=O)CN(Cc1ccc(F)cc1Cl)S(=O)(=O)c1c(F)c(F)c(F)c(F)c1F` [Compound 1246, 4-(N-(3-(tert-butyl)-5-cyclopropylbenzyl)-2-(N-(2-chloro-4-fluorobenzyl)-(2,3,4,5,6-pentafluorophenyl)sulfon-amido)acetamido)-3-(2-methoxyethoxy)benzoic acid] are 6.50 to 11.00, 4.70 to 5.00 and 2.37 to 4.12 h.
For `CN(C)c1cc(C(=O)O)ccc1N(Cc1cc(C2CC2)cc(C2CC2)c1)C(=O)CN(Cc1cnccc1C(F)(F)F)S(=O)(=O)c1c(F)c(F)c(F)c(F)c1F` [Compound 1210, 4-(N-(3,5-dicyclopropylbenzyl)-2-(N-((4-(trifluoromethyl)pyridin-3-yl)methyl)-(2,3,4,5,6-pentafluoro-phenyl)sulfonamido)acetamido)-3-(dimethylamino) benzoic acid] the same measures were 6.50 to 11.00, 5.00 to 9.00 and 0.00167 to 2.37 h.
For the compound `CC(C)(C)c1cc(CN(C(=O)CN(Cc2c(F)c(F)c(F)c(F)c2F)S(=O)(=O)c2c(F)c(F)c(F)c(F)c2F)c2ccc(C(=O)O)cc2OC2CC2)cc(C2CC2)c1` [Compound 1108, 4-(N-(3-(tert-butyl)-5-cyclopropylbenzyl)-2-(N-((perfluorophenyl)methyl)-(2,3,4,5,6-pentafluorophenyl)sulfonamido)acetamido)-3-cyclopropoxybenzoic acid], the pIC50 in the series with MV4-11 cells is 6.50 to 11.00; in series [1] it was 5.00 to 9.00. The half-life at 25 μM in the series with glutathione (GSH) was in the range of 9.23 to 1670 h.
For `CC(C)(C)c1cc(CN(C(=O)CN(Cc2c(F)cc(F)cc2F)S(=O)(=O)c2c(F)c(F)c(F)c(F)c2F)c2ccc(C(=O)O)cc2OC2CC2)cc(C2CC2)c1` [Compound 1122, 4-(N-(3-(tert-butyl)-5-cyclopropylbenzyl)-2-(N-(2,4,6-trifluorobenzyl)-(2,3,4,5,6-pentafluoro-phenyl)sulfonamido)acetamido)-3-cyclopropoxybenzoic acid] the same measures were 6.50 to 11.00, 4.70 to 5.00 and 9.23 to 1670 h.
In the same order, the values of `O=C(O)c1ccc(N(Cc2cc(C3CC3)cc(C3CC3)c2)C(=O)CN(Cc2ccc(F)cc2Cl)S(=O)(=O)c2c(F)c(F)c(F)c(F)c2F)c(OC2CCCC2)c1` [Compound 1208, 4-(2-(N-(2-chloro-4-fluorobenzyl)-(2,3,4,5,6-pentafluorophenyl)sulfon-amido)-N-(3,5-dicyclopropylbenzyl)acetamido)-3-(cyclopentyloxy) benzoic acid] are 6.50 to 11.00, 4.70 to 5.00 and 9.23 to 1670 h.
In the same order, the values of `O=C(O)c1ccc(N(Cc2cc(C3CC3)cc(C3CC3)c2)C(=O)CN(Cc2c(F)cc(F)cc2F)S(=O)(=O)c2c(F)c(F)c(F)c(F)c2F)c(OC2CC2)c1` [Compound 1178, 3-cyclopropoxy-4-(N-(3,5-dicyclopropylbenzyl)-2-(N-(2,4,6-trifluorobenzyl)-(2,3,4,5,6-pentafluoro-phenyl)sulfonamido)acetamido)benzoic acid] are 6.50 to 11.00, 4.70 to 5.00 and 4.12 to 9.23 h.
`CC(C)(C)c1cc(CN(C(=O)CN(Cc2cnccc2C(F)(F)F)S(=O)(=O)c2c(F)c(F)c(F)c(F)c2F)c2ccc(C(=O)O)cc2OC2CC2)cc(C2CC2)c1` [Compound 1142, 4-(N-(3-(tert-butyl)-5-cyclopropylbenzyl)-2-(N-((4-(trifluoromethyl)pyridin-3-yl)methyl)-(2,3,4,5,6-pentafluoro-phenyl)sulfonamido)acetamido)-3-cyclopropoxybenzoic acid]: the pIC50 in the series with MV4-11 cells is 6.50 to 11.00; in series [1] it was 4.52 to 4.70. The compound further yielded a half-life at 25 μM in the series on glutathione (GSH) of 4.12 to 9.23 h.
In the same order, the values of `CC(C)Oc1cc(CN(C(=O)CN(Cc2ccc(F)cc2Cl)S(=O)(=O)c2c(F)c(F)c(F)c(F)c2F)c2ccc(C(=O)O)cc2OC2CC2)cc(C2CC2)c1` [Compound 1232, 4-(2-(N-(2-chloro-4-fluorobenzyl)-(2,3,4,5,6-pentafluorophenyl)sulfon-amido)-N-(3-cyclopropyl-5-isopropoxybenzyl)acetamido)-3-cyclopropoxybenzoic acid] are 6.50 to 11.00, 4.70 to 5.00 and 4.12 to 9.23 h.
With `O=C(O)c1ccc(N(Cc2cc(C3CC3)cc(N3CCCC3)c2)C(=O)CN(Cc2cnccc2C(F)(F)F)S(=O)(=O)c2c(F)c(F)c(F)c(F)c2F)c(OC2CC2)c1` [Compound 1190, 3-cyclopropoxy-4-(N-(3-cyclopropyl-5-(pyrrolidin-1-yl)benzyl)-2-(N-((4-(trifluoromethyl)pyridin-3-yl)methyl)-(2,3,4,5,6-pentafluoro-phenyl)sulfonamido)acetamido)benzoic acid], the pIC50 in series [1] was 5.00 to 9.00. In the series with glutathione (GSH), this compound showed a half-life at 25 μM of 2.37 to 4.12 h.
For `O=C(O)c1ccc(N(Cc2nc(C3CC3)cc(C3CC3)n2)C(=O)CN(Cc2ccc(F)cc2Cl)S(=O)(=O)c2c(F)c(F)c(F)c(F)c2F)c(OC2CC2)c1` [Compound 1247, 4-(2-(N-(2-chloro-4-fluorobenzyl)-(2,3,4,5,6-pentafluorophenyl)sulfon-amido)-N-((4,6-dicyclopropylpyrimidin-2-yl)methyl)acetamido)-3-cyclopropoxybenzoic acid] the same measures were 4.70 to 5.00 and 2.37 to 4.12 h.
In the same order, the values of `COc1cc(C(=O)O)ccc1N(Cc1cc(C2CC2)cc(C2CC2)c1)C(=O)CN(Cc1ncccc1C(F)(F)F)S(=O)(=O)c1c(F)c(F)c(F)c(F)c1F` [Compound 1162, 4-(N-(3,5-dicyclopropylbenzyl)-2-(N-((3-(trifluoromethyl)pyridin-2-yl)methyl)-(2,3,4,5,6-pentafluoro-phenyl)sulfonamido)acetamido)-3-methoxybenzoic acid] are 4.70 to 5.00 and 2.37 to 4.12 h.

By pIC50 is commonly meant −log10 of the IC50, conventionally taken in molar units. The low end stands for a high IC50, the high end for a low IC50. As a reminder, the half-life is the time needed for the level to fall by half in the phase considered.
